Read-outs that look alike come from different tables or passages of the source.
Tests used:
Co(II)-loaded EcMetAP-I [1] = target: T1, Co(II)-loaded EcMetAP-I (Escherichia coli, UniProt P0AE18); assay: Enzymatic assay of MetAP; assay type: biochemical
Co(II)-loaded PfMetAP-II [2] = target: T2, Co(II)-loaded PfMetAP-II (Pyrococcus furiosus, UniProt P56218); assay: Enzymatic assay of MetAP; assay type: biochemical
Mn(II)-loaded EcMetAP-I [3] = target: T3, Mn(II)-loaded EcMetAP-I (Escherichia coli, UniProt P0AE18); assay: Isothermal titration calorimetry; assay type: binding; conditions: for fold stronger binding (Kd) to Co(II)-loaded than Mn(II)-loaded EcMetAP-I: ITC Kd Mn(II)-loaded vs Co(II)-loaded EcMetAP-I; for n (stoichiometry): ITC fit
Co(II)-loaded HsMetAP-II = conditions: in words; cited from earlier work
Co(II)-loaded EcMetAP-I [4] = target: T1, Co(II)-loaded EcMetAP-I; assay: Isothermal titration calorimetry; assay type: binding; conditions: for n (stoichiometry): ITC fit; for TΔS / ΔG: from ITC via Gibbs relationship
Mn(II)-loaded PfMetAP-II [5] = target: T4, Mn(II)-loaded PfMetAP-II (Pyrococcus furiosus, UniProt P56218); assay: Isothermal titration calorimetry; assay type: binding; conditions: for fold stronger binding (Kd) to Co(II)-loaded than Mn(II)-loaded PfMetAP-II: ITC Kd Mn(II)-loaded vs Co(II)-loaded PfMetAP-II; for n (stoichiometry): ITC fit
Mn(II)-loaded HsMetAP-II = conditions: in words; cited from earlier work
Co(II)-loaded PfMetAP-II [6] = target: T2, Co(II)-loaded PfMetAP-II; assay: Isothermal titration calorimetry; assay type: binding; conditions: for n (stoichiometry): ITC fit; for TΔS / ΔG: from ITC via Gibbs relationship
Mn(II)-loaded EcMetAP-I [7] = target: T3, Mn(II)-loaded EcMetAP-I; assay: Enzymatic assay of MetAP; assay type: biochemical
Mn(II)-loaded PfMetAP-II [8] = target: T4, Mn(II)-loaded PfMetAP-II; assay: Enzymatic assay of MetAP; assay type: biochemical
[9] = [MnMn(EcMetAP-I)], from ITC via Gibbs relationship
[10] = [MnMn(PfMetAP-II)], from ITC via Gibbs relationship

T1 sequence (P0AE18 whole entry): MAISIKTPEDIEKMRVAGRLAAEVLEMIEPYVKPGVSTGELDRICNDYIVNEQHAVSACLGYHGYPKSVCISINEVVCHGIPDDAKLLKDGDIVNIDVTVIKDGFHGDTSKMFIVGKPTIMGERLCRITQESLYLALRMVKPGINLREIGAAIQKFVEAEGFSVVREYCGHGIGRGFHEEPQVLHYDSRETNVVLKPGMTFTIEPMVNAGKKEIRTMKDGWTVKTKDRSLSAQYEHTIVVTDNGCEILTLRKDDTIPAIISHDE
T3 sequence (P0AE18 whole entry): as above
T4 sequence (P56218 whole entry): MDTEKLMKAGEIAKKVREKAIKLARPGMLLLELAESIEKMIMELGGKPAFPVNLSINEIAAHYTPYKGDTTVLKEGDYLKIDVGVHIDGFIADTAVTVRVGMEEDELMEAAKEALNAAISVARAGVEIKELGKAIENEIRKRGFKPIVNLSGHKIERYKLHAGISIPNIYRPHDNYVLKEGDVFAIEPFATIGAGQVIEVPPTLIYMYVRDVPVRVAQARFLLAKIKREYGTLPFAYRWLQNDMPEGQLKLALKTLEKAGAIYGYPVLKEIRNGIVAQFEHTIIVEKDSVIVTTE
T2 sequence (P56218 whole entry): as above

SMILES	fold stronger binding (Kd) to Co(II)-loaded than Mn(II)-loaded EcMetAP-I (Mn(II)-loaded EcMetAP-I [3])	n (stoichiometry) (Mn(II)-loaded EcMetAP-I [3]; [MnMn(EcMetAP-I)])	ΔG (Mn(II)-loaded EcMetAP-I [3]; [9])	inhibition of Co(II)-loaded HsMetAP-II (Co(II)-loaded HsMetAP-II)	n (stoichiometry) (Co(II)-loaded EcMetAP-I [4]; [CoCo(EcMetAP-I)])	TΔS (Co(II)-loaded EcMetAP-I [4]; [CoCo(EcMetAP-I)])	ΔG (Co(II)-loaded EcMetAP-I [4]; [CoCo(EcMetAP-I)])	fold stronger binding (Kd) to Co(II)-loaded than Mn(II)-loaded PfMetAP-II (Mn(II)-loaded PfMetAP-II [5])	n (stoichiometry) (Mn(II)-loaded PfMetAP-II [5]; [MnMn(PfMetAP-II)])	ΔG (Mn(II)-loaded PfMetAP-II [5]; [10])	n (stoichiometry) (Co(II)-loaded PfMetAP-II [6]; [CoCo(PfMetAP-II)])	TΔS (Co(II)-loaded PfMetAP-II [6]; [CoCo(PfMetAP-II)])	ΔG (Co(II)-loaded PfMetAP-II [6]; [CoCo(PfMetAP-II)])	also measured
CCSCC[C@@H](N)C(O)C(=O)N[C@@H](C)c1cccc2ccccc12 (mixture of isomers) [A-311263, ((2RS,3R)-3-amino-2-hydroxy-5-ethylthio)pentanoyl-((S)-(−)-(1-naphthyl)ethyl)amide]	approximately 21 fold	1	-5.86 kcal/mol	equally well	1	7.89 kcal/mol	-7.65 kcal/mol	approximately 58 fold	1	-6.24 kcal/mol	1	5.02 kcal/mol	-8.65 kcal/mol	Ki (Co(II)-loaded EcMetAP-I [1]; [CoCo(EcMetAP-I)], competitive inhibition fit, substrate MGMM): 3 µM; Ki (Co(II)-loaded PfMetAP-II [2]; [CoCo(PfMetAP-II)], competitive inhibition fit, substrate MGMM): 2 µM; Kd (Mn(II)-loaded EcMetAP-I [3]; [MnMn(EcMetAP-I)], ITC, 25.0 °C, HEPES pH 7.5): 50 ± 5 µM; TΔS (Mn(II)-loaded EcMetAP-I [3]; [9]): 1.4 kcal/mol; Kd (Co(II)-loaded EcMetAP-I [4]; [CoCo(EcMetAP-I)], ITC, 25.0 °C, HEPES pH 7.5): 2.4 ± 0.1 µM; Kd (Mn(II)-loaded PfMetAP-II [5]; [MnMn(PfMetAP-II)], ITC, 25.0 °C, HEPES pH 7.5): 26 ± 5 µM; inhibition of Mn(II)-loaded HsMetAP-II (Mn(II)-loaded HsMetAP-II): equally well; Kd (Co(II)-loaded PfMetAP-II [6]; [CoCo(PfMetAP-II)], ITC, 25.0 °C, HEPES pH 7.5): 0.45 ± 0.11 µM
c1ccc2cc(CSc3nnc[nH]3)ccc2c1 [A-310840, 3-((2-naphthylmethyl)sulfanyl)-4H-1,2,4-triazole]	approximately 71 fold	1	-4.28 kcal/mol	strongly inhibits	1	4.78 kcal/mol	-6.81 kcal/mol	approximately 333 fold	1	-4.33 kcal/mol	1	6.45 kcal/mol	-7.77 kcal/mol	IC50 (Co(II)-loaded EcMetAP-I [1]): 44 µM; Ki (Co(II)-loaded EcMetAP-I [1]): 8 µM; IC50 (Mn(II)-loaded EcMetAP-I [7]): 1000 µM; Ki (Mn(II)-loaded EcMetAP-I [7]): 750 µM; fold less potent (IC50) for Mn(II)-loaded than Co(II)-loaded EcMetAP-I (Mn(II)-loaded EcMetAP-I [7]; IC50 Mn(II)-loaded vs Co(II)-loaded EcMetAP-I): approximately 23 fold; IC50 (Co(II)-loaded PfMetAP-II [2]): 15 µM; Ki (Co(II)-loaded PfMetAP-II [2]): 3 µM; Kd (Mn(II)-loaded EcMetAP-I [3]): 714 ± 10 µM; Kd (Co(II)-loaded EcMetAP-I [4]): 10 ± 0.1 µM; Kd (Mn(II)-loaded PfMetAP-II [5]): 666 ± 10 µM; TΔS (Mn(II)-loaded PfMetAP-II [5]; [10]): 4.06 kcal/mol; Kd (Co(II)-loaded PfMetAP-II [6]): 2 ± 0.1 µM; IC50 (Mn(II)-loaded PfMetAP-II [8]): 1000 µM; Ki (Mn(II)-loaded PfMetAP-II [8]): 440 µM; fold less potent (IC50) for Mn(II)-loaded than Co(II)-loaded PfMetAP-II (Mn(II)-loaded PfMetAP-II [8]; IC50 Mn(II)-loaded vs Co(II)-loaded PfMetAP-II): approximately 67 fold

Source: article PMC2678238 (Journal of biological inorganic chemistry : JBIC : a …, 2009)
